Data from patent US9133197B2, “Oxidated derivatives of triazolylpurines useful as ligands of the adenosine A2A receptor and their use as medicaments” (SIGMA-TAU INDUSTRIE FARMACEUTICHE RIUNITE S.P.A., priority 2009, dated 2015).

Tests used:
[1] = system: battery of 51 different receptors; test: Selectivity profile: affinity toward a battery of 51 different receptors; type: binding, human; details: tested at 10 μM
Text: The majority of the 51 assays were human recombinant receptors of the following types: adenosine, adrenergic, cannabinoid, dopamine, GABA, histamine, melatonin, muscarinic, prostanoid and serotonin receptors belonging to non peptide receptors family; angiotensin-II, bradychinin, chemokines, cholecistokinin, endothelin, galanin, melacortin, neurokinin, neuropeptide Y, neurotensin, opioid and opioid like, somatostatin, vasoactive intestinal peptide and vasopressin receptors belonging to peptide receptors family; Ca^2+ channel, K^+ channel and Na^+ channel belonging to the ion channel family and dopamine, norepinephrine and serotonin belonging to the amine transporters receptors family.” These three compounds were tested at a concentration of 10 μM.

[2] = target: human adenosine A1 receptor (Homo sapiens (Human), UniProt P30542); test: A1 receptor competition binding assay ([3H]DPCPX); details: membranes of CHO-K1 cells expressing human A1; [3H]DPCPX 1.7 nmol/l; Ki from IC50 by Cheng and Prusoff
Chain of human adenosine A1 receptor (P30542 whole entry): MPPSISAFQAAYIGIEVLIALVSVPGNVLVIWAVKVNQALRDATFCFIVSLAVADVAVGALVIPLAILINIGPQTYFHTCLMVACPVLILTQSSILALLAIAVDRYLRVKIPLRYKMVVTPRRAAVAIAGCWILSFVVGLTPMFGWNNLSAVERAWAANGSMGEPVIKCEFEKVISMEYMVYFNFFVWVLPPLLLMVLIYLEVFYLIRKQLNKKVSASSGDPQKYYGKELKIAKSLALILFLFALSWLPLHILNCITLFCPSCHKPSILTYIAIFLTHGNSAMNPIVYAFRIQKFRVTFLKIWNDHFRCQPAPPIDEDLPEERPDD
Procedure: Competition binding experiments have been performed incubating membranes from CHO-K1 cells stably transfected with the human adenosine A1 receptor (cat. ES-010-M400UA, Perkin Elmer, Boston, Mass., USA) (5-10 μg of protein/sample) with a single concentration of [3H]DPCPX (1.7 nmol/l) (Perkin Elmer), in the presence of various concentrations (ranging from 10^−5 to 10^−10 M) of cold DPCPX, ST4206 and ST4208 in 96-well filter plates (MultiScreen system, cat #MAFBN0B10, Millipore, Billerica, Mass., USA) for 60 min at 25° C. in a total volume of 200 μL/well of 25 mmol/l Hepes, 5 mmol/L MgCl2, 1 mmol/l CaCl2, 100 mmol/L NaCl, pH 7.4 (all from Sigma-Aldrich). Non-specific binding has been determined in the presence of 250 μmol/l of cold DPCPX (8-cyclopentyl-1,3-dipropylxanthine, Sigma-Aldrich). At the end of incubation, bound and free radioligands have been separated by filtering the 96-well filter plates using a Millipore filtration apparatus (MultiscreenHTS vacuum manifold). Filter plates have been washed several times with ice-cold buffer (50 mmol/l Tris-HCl, pH 7.4) and filter-bound radioactivity measured using a MicroBeta counter (PerkinElmer) after addition of 30 μL/well of OptiPhase SuperMix scintillation cocktail (PerkinElmer).
Data have been analyzed using nonlinear regression with GraphPad PRISM commercial software. Data will be expressed as test compound concentration causing a half maximal inhibition of control values (IC50). Inhibitory binding constant (Ki) values will be calculated from IC50 values, according to the Cheng and Prusoff equation K1=IC50/(1+[C]/Kd), where [C] is the concentration of the radioligand and Kd its dissociation constant.

[3] = target: T1, human adenosine A2a receptor (Homo sapiens (Human), UniProt P29274); test: Inhibition of NECA-induced cAMP accumulation in HEK 293 cells; type: cell-based; details: HEK 293 cells expressing human A2a; 100 nmol/l NECA; mean of four experiments
T1 sequence (P29274 whole entry): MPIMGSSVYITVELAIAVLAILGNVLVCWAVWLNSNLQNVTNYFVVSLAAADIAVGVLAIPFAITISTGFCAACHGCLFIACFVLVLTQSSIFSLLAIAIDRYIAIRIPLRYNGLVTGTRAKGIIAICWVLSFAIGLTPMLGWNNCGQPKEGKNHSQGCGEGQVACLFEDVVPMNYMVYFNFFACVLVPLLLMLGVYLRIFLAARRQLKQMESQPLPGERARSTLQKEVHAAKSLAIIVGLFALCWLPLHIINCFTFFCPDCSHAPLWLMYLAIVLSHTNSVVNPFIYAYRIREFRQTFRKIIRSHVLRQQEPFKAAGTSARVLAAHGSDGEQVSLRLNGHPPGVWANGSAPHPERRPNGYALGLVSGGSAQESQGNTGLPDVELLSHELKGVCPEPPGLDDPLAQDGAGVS
Procedure: The compounds of the present invention were tested to assess their capacity to inhibit cAMP accumulation induced by the A2A agonist 5′-N-ethylcarboxamidoadenosine (NECA).
cAMP quantitative determination was performed with an enzyme immunoassay system (cat. RPN2255, Amersham Biosciences) according to manufacturer's instructions. HEK 293 cells, stably expressing the human adenosine A2a receptor gene (PerkinElmer, Boston, Mass., USA, cat. RBHA2AC), were grown in Falcon flasks in DMEM (Cambrex, Verviers, Belgium) supplemented with 10% FBS (Cambrex), 1 mmol/l sodium pyruvate (Sigma-Aldrich, St. Louis, Mo., USA), and 0.4 mg/ml G418 (Sigma-Aldrich) at 37° C. in a 5% CO2 atmosphere. Cells were plated on 96-well dishes at a concentration of 10^3 cells/well 48 hours before test compound exposure. Before cell stimulation with the compounds, cells were treated for 10 min at 37° C. with 0.5 mmol/l of the phosphodiesterase inhibitor Ro 20-1724 (Sigma-Aldrich) and with 2 U/ml of adenosine deaminase (ADA, Sigma-Aldrich). Medium was then changed with fresh medium containing scalar concentrations of test compounds (10^−10-10^−4 mol/l) at 37° C. and, after 10 min, 100 nmol/l NECA was added. cAMP was extracted 20 min after and quantified.
Data were analyzed by nonlinear regression analysis with GraphPad PRISM commercial software. Test compound concentrations causing a half maximal inhibition of control values (IC50 calculated by GraphPad Prism software) was reported (mean±SEM of four independent experiments).

[4] = target: T1, human adenosine A2a receptor; test: A2a receptor competition binding assay ([3H]ZM241385); details: membranes of HEK293 cells expressing human A2a; [3H]ZM241385 2 nmol/l; Ki from IC50 by Cheng and Prusoff
Procedure: HEK293 cells, stably expressing the human adenosine A2a receptor gene (PerkinElmer, Boston, Mass., USA, cat. RBHA2AC), were grown in Falcon flasks in DMEM (Cambrex, Verviers, Belgium) supplemented with 10% FBS (Cambrex), 1 mmol/l sodium pyruvate (Sigma-Aldrich, Saint Louis, Mo., USA), 0.4 mg/ml G418 (Sigma-Aldrich) at 37° C. in a 5% CO2 atmosphere. For radioligand binding experiments, the cells were collected at 80% of confluence, in 5 mmol/l Tris-HCl (Sigma-Aldrich), pH 7.4, containing 2 mmol/l EDTA, counted, washed in PBS (Cambrex), resuspended in incubation buffer A containing 50 mmol/l Tris-HCl, pH 7.4, 10 mmol/l MgCl2 (Sigma-Aldrich) and homogenized using an Ultra Turrax T25. The membranes were centrifuged and homogenized once again and the final pellet was stored at −80° C. until use. Prior to the competition binding assay, the pellet was resuspended in buffer A at the desired protein concentration and membrane suspension was incubated with 2 U/ml adenosine deaminase (ADA, Sigma-Aldrich) for 30 min at 37° C. to remove endogenous adenosine.
The protein concentration of membrane suspension was determined using the Bradford method (Pierce, Rockford, Ill., USA) with bovine albumin as standard. Competition binding experiments were performed by incubating membranes (5-10 μg of protein/sample) with a single concentration of the A2a antagonist [^3H]ZM241385 (Biotrend, Cologne, Germany) (2 nmol/l), in the presence of various concentrations (ranging from 10^−5 to 10^−11 mol/l) of test and reference compounds in 96-well filter plates (MultiScreen system, cat. MAFBN0B10, Millipore, Billerica, Mass., USA) for one h at 4° C. in a total volume of 200 μl/well of appropriate buffer (50 mmol/l Tris-HCl, pH 7.4, 10 mmol/l MgCl2). Nonspecific binding was determined in the presence of 10 μmol/l cold ZM241385 (Tocris, Ellisville, Mo., USA). At the end of incubation, bound and free radioligands were separated by filtering the 96-well filter plates using a Millipore filtration apparatus (MultiScreenHTS vacuum manifold). Filter plates were then washed several times with ice-cold buffer (50 mmol/l Tris-HCl, pH 7.4) and filter-bound radioactivity measured using a MicroBeta counter (PerkinElmer) after addition of 30 μl/well of OptiPhase SuperMix scintillation cocktail (PerkinElmer). Four experiments were performed in triplicate by JANUS® automated workstation (Perkin Elmer).
Data were analyzed by nonlinear regression analysis with GraphPad PRISM commercial software and expressed as IC50, defined as the concentration of compounds that inhibits 50% of [^3H]ZM241385 binding. Inhibitory binding constant (Ki) values were calculated from IC50 values according to the Cheng and Prusoff equation Ki=IC50/(1+[C]/Kd), where [C] is the concentration of the radioligand and Kd its dissociation constant.

[5] = system: haloperidol-induced catalepsy in CD1 mice; test: Haloperidol-induced catalepsy mice model; type: in vivo; details: oral 10, 20 or 40 mg/kg, haloperidol 2 mg/kg i.p., AUC of catalepsy time over 7 h
Procedure: Haloperidol (2 mg/kg) was injected i.p. to CD1 mice 2.5 h before oral administration of ST3932 or ST4206. The latter were administered at doses of 10, 20 or 40 mg/kg.
Then, each CD1 mouse was gently placed by its forepaws on a wire at a height of 4.5 cm. Catalepsy was measured as the time (expressed in seconds) necessary for the animal to step down with at least one forepaw, with an end point of 60 seconds, time after which the mouse was gently removed from the wire. Then, catalepsy was scored every 60 min for seven h.
All data were expressed both as individual and mean values, plus or minus standard error (Mean±SEM) of catalepsy time in seconds. Statistical analysis was performed using sigma stat program. After calculation of AUC throughout 7 hours, the one-way ANOVA followed by Dunnett's test were used.

6-OHDA lesioned rats = test: Enhancement of L-DOPA antiparkinsonian activity, 6-OHDA lesioned rats; type: in vivo, Rats (Sprague Dawley); details: 10, 20, 40 mg/kg with threshold dose of L-Dopa (6 mg benserazide + 3 mg L-DOPA); 6-OHDA rats
Procedure: Rats (Sprague Dawley) under chloral hydrate (400 mg/kg) anaesthesia were placed in a Kopf stereotaxic apparatus. Through a stainless steel cannula, 6-OHDA was injected at a rate of 1 μl/min into the left medial forebrain bundle at coordinates A=−2.2, L=+1.5 and V=−7.8, according to the Pellegrino atlas. All rats, including shams, were treated with desipramine (10 mg/kg) 10 min before anaesthesia to prevent damage to noradrenergic neurons.
Two weeks after the 6-OHDA injection, all animals were tested for their contra lateral rotation capacity in response to 30 mg/kg i.p. benserazide followed by 50 mg/kg i.p. of L-Dopa 30 min later. Rats not showing at least 200 contra lateral rotations within the 3 h testing period were eliminated from the study. One week after this test, selected animals were randomized to be enrolled in three studies. Each study involved seven groups of eight animals.
Tested compounds (ST3829, ST3932 and ST4206) were dissolved in a solution containing 10% sucrose and 0.3% Tween 80 in sterile water in order to obtain three different dosage forms (i.e., 10, 20 and 40 mg/kg).
In groups 5, 6 and 7 benserazide was administered first, followed by the tested compound 25 min after and finally by L-DOPA 5 min later.

For Cn1c(-n2nccn2)nc2c(N)nc(CCCCO)nc21 [Example 1, 4-(6-Amino-9-methyl-8[1,2,3]triazol-2-yl-9H-purin-2-yl)butan-1-ol], the “affinity toward 51 receptors” value [1] was “none of them demonstrated any substantial affinity”, the Ki [2] was 51 nM and the IC50 [3] was 2120 nM. It also gave a Ki [4] of 53 nM.
With CC(O)CCc1nc(N)c2nc(-n3nccn3)n(C)c2n1 (stereo not drawn) [Example 2, 4-(6-Amino-9-methyl-8[1,2,3]triazol-2-yl-9H-purin-2-yl)butan-2-ol] the “antagonism of haloperidol-induced catalepsy” value [5] was “significantly antagonized haloperidol-induced catalepsy in a dose-dependent manner”, the “affinity toward 51 receptors” value [1] was “none of them demonstrated any substantial affinity” and the “contralateral turning behaviour induced by L-Dopa” value (6-OHDA lesioned rats) was “increased the contralateral turning behaviour induced by L-Dopa”. For the same compound, the Ki [2] was 27 nM, the IC50 [3] was 450 nM and the Ki [4] was 8 nM.
For C[C@H](O)CCc1nc(N)c2nc(-n3nccn3)n(C)c2n1 [Example 3, (S)-4-(6-Amino-9-methyl-8-[1,2,3]triazol-2-yl-9H-purin-2-yl)butan-2-ol], the IC50 [3] was 260 nM and the Ki [4] was 19 nM.
Compound C[C@@H](O)CCc1nc(N)c2nc(-n3nccn3)n(C)c2n1 [Example 4, (R)-4-(6-Amino-9-methyl-8-[1,2,3]triazol-2-yl-9H-purin-2-yl)butan-2-ol] has an IC50 [3] of 420 nM and a Ki [4] of 8 nM.
CCCC(O)c1nc(N)c2nc(-n3nccn3)n(C)c2n1 (stereo not drawn) [Example 5, 1-(6-Amino-9-methyl-8-[1,2,3]triazol-2-yl-9H-purin-2-yl)butan-1-ol] was tested, and the “affinity toward 51 receptors” value [1] was “none of them demonstrated any substantial affinity”, the “contralateral turning behaviour induced by L-Dopa” value (6-OHDA lesioned rats) was “efficacy of ST3829 at increasing the number of contralateral rotation” and the Ki [2] was 120 nM. For the same compound, the IC50 [3] was 2320 nM and the Ki [4] was 22 nM.
For CCCC(=O)c1nc(N)c2nc(-n3nccn3)n(C)c2n1 [Example 6, 1-(6-Amino-9-methyl-8-[1,2,3]triazol-2-yl-9H-purin-2-yl)-butan-1-one], the Ki [2] was 216 nM, the IC50 [3] was 2920 nM and the Ki [4] was 19 nM.
With CC(=O)CCc1nc(N)c2nc(-n3nccn3)n(C)c2n1 [Example 7, 4-(6-Amino-9-methyl-8[1,2,3]triazol-2-yl-9H-purin-2-yl)-butan-2-one] the “antagonism of haloperidol-induced catalepsy” value [5] was “significantly antagonized haloperidol-induced catalepsy in a dose-dependent manner”, the “contralateral turning behaviour induced by L-Dopa” value (6-OHDA lesioned rats) was “increased the contralateral turning behaviour induced by L-Dopa” and the Ki [2] was 197 nM. For the same compound, the IC50 [3] was 990 nM and the Ki [4] was 12 nM.
